A short description of the assay: Blackhead dissolution test (extracted blackheads submerged in test material, graded by expert inspection). Also on record: species or system human. The following applies: blackhead submerged in approximately 100 microliters test material for 24 hours at room temperature, no agitation; 1 = not dissolved, 7 = completely dissolved. The procedure:
A series of compounds and compositions were tested for their ability to dissolve blackheads as follows.
The blackheads were extracted from human volunteers using a comedone extracator. They were placed in a 24 or 96 well plate and submerged into approximately 100 microliters of each test material listed in Table 1 for 24 hours at room temperature ([…]). Gray color cards (GretagMacbeth ColorChecker™ Color Rendition Chart-Neutral 8 (0.23) CC20) were used underneath and measurements were made using a WILD M10 microscope at 40x, no agitation. The plates were covered with parafilm to avoid evaporation, and each test solution was removed at 24 hours and allowed to dry overnight. The amount of blackhead dissolved was graded by expert inspection on a scale from 1-7, 1 being not dissolved, and 7 being completely dissolved as shown in Table 1.
Consider `[Na+].[OH-]` [0.1M NaOH, NaOH, reference compound], for which the “Outcome at 24 hours (amount of blackhead dissolved, grade on scale 1-7)” value (“Outcome at 24 hours” below) turned out to be 4.33 ± 0.58.

`CCCCCCCCCCCCCC(=O)O` [10% Myristic acid in KOH, Myristic acid]: the “Outcome at 24 hours” value is 6.00 ± 0.01.

For `CCCCCCCC/C=C\CCCCCCCC(=O)O` [10% Oleic acid in KOH, Oleic acid], the “Outcome at 24 hours” value came to 7.00 ± 0.01.

For the origin of these results see US20170087109A1, “COMPOSITIONS AND METHODS FOR TREATING BLACKHEADS” (Johnson & Johnson Consumer Inc., priority 2015, published 2017).
